These results are taken from US20230331683A1, “INHIBITORS OF SPINSTER HOMOLOG 2 (SPNS2) FOR USE IN THERAPY” (University of Virginia Patent Foundation, priority 2020, published 2023).

Counter-ions that a name gives are not always drawn.

Chain of mouse SPNS2 (Q91VM4 whole entry): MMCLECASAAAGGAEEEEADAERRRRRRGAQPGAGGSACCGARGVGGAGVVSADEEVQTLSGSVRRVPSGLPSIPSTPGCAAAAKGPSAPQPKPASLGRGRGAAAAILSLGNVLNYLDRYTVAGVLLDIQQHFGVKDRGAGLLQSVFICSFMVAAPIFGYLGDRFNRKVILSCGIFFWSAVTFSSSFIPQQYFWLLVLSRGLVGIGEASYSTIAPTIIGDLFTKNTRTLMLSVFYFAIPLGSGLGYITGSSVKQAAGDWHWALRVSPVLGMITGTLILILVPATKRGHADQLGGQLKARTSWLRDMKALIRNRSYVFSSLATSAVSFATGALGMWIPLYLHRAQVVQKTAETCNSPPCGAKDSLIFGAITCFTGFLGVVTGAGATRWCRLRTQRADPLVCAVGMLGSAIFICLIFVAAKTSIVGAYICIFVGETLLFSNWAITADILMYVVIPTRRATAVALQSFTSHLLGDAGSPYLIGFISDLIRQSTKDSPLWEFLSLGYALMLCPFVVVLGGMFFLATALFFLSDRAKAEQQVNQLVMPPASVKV

The target in the experiment is mouse SPNS2 (Mus musculus (Mouse), UniProt Q91VM4). The experiment can be described thus: S1P Transporter Assay (S1P release from whole cells expressing SPNS2). The experiment is classed as cell-based. Particulars: in vitro inhibition against SPNS2; HeLa cells expressing mouse SPNS2, S1P release into media after 18 hours; compounds as their pharmaceutical salts. As for the experimental part:
Transporter assays are vectorial and therefore require measurement of the transported analyte in different compartments. The S1P transporter SPNS2 only exports S1P, which obviates measuring uptake of S1P into transporter-expressing cells. Thus, transporter activity was determined by quantifying S1P release from whole cells expressing SPNS2. SPNS2 inhibitor potency was assessed using whole cell assays. HeLa cells expressing mouse SPNS2 were used to determine inhibitor potency (IC50). Cells were plated onto 12 well plates and assayed when the cell monolayers became confluent. Cell growth media (RPMI-1640 containing 10% fetal bovine serum) was replaced with 2 mL of serum-free media (RPMI-1640) containing fatty acid free bovine serum albumin (BSA) (0.2 % w/v) and supplemented with 4-deoxypyridoxine (DOP) (1 mM), NaF (2 mM), Na3VO4 (0.2 mM) to inhibit S1P degradation. Test articles (1 × 10-9 - 1 × 10^-4 M) were assayed in duplicate or triplicate. After 18 hours, media was collected, an internal recovery standard (0.005 mL of 5 × 10^-7 M deuterated (d7) S 1P in methanol) was added, the BSA was precipitated with trichloroacetic acid and the bound S1P extracted with methanol. S1P and S1P-d7 were measured by liquid chromatography mass spectrometry. Inhibitor potency at the human SPNS2 ortholog was determined by an analogous assay using U-937 cells, which endogenously express human SPNS2.
In general, IC50 refers to the concentration needed to halve the response being measured. On to `CCCCCCCCc1ccc2oc(NCCN)nc2c1` [Compound 13a, N^1-octylbenzo[d]oxazol-2-yl)ethane-1,2-diamine hydrochloride], for which the IC50 is more than 2000 nM. The result for `CCCCCCCCCCc1ccc(NC(=O)N[C@H]2CCNC2)cc1` [Compound 34, (S)(4-decylphenyl)-3-(pyrrolidin-3-yl)urea Hydrochloride] reads not above 2000 nM; that for `CCCCCCCCCCCCc1ccc2oc(NCCN)nc2c1` [Compound 13e, N^1-dodecylbenzo[d]oxazol-2-yl)ethane-1,2-diamine hydrochloride], more than 2000 nM. The result for `CCCCCCCCCCc1ccc2nc(N(CCN)CCN)oc2c1` [Compound 13y, N1-aminoethyl)-N1-(6-decylbenzo[d]oxazol-2-yl)ethane-1,2-diamine dihydrochloride] reads not above 2000 nM. The same measure for `CCCCCCCCCCc1ccc2nc(NCCCN)sc2c1` [Compound 17b, N^1-decylbenzo[d]thiazol-2-yl)propane-1,3-diamine hydrochloride]: more than 2000 nM; for `CCCCCCCCCCc1ccc2oc(NC3CCNCC3)nc2c1` [Compound 13m, 5-decyl-N-(piperidin-4-yl)benzo[d]oxazol-2-amine Hydrochloride]: not above 2000 nM. For `CCCCCCCCCCc1ccc2oc(CCN)nc2c1` [Compound 8a, 2-Decylbenzo[d]oxazol-2-yl)ethan-1-amine Hydrochloride], the IC50 was more than 2000 nM. As for `CCCCCCCCCCc1ccc(NC(=O)CCCCCN)cc1` [Compound 2f, 6-amino-N-(4-decylphenyl)hexanamide Hydrochloride], the IC50 is not above 2000 nM.

In the case of `CCCCCCCCCCc1ccc(NC(=O)CCCN)c(F)c1` [Compound 2l, amino-N-decyl-2-fluorophenyl)butanamide Hydrochloride], the IC50 was more than 2000 nM. Turning to `CCCCCCCCCCc1ccc2oc(N3CC[C@H](N)C3)nc2c1` [Compound 13n, (S)(5-decylbenzo[d]oxazol-2-yl)pyrrolidin-3-amine Hydrochloride], the IC50 was more than 2000 nM. The result for `CCCCCCCCCCc1ccc2oc(NCC3CCNCC3)nc2c1` [Compound 36, 5-decyl-N-(piperidin-4-ylmethyl)benzo[d]oxazol-2-amine] reads more than 2000 nM; that for `CCCCCCCCCCc1ccc2oc(NC3CNC3)nc2c1` [Compound 13i, N-(azetidin-3-yl)-5-decylbenzo[d]oxazol-2-amine 2,2,2-trifluoroacetate], more than 2000 nM; that for `CCCCCCCCCCc1ccc(C(=O)NCCN)cc1` [Compound 26e, N-aminoethyl)-4-decylbenzamide Hydrochloride], more than 2000 nM.
